According to publication PMC6222706, “Evaluation of the Antioxidant and Neuroprotectant Activities of New Asymmetrical 1,3-Diketones” (Molecules : A Journal of Synthetic Chemistry and Natural …, 2018):

Experiments:
[1] = ABTS radical scavenging assay; type: biochemical; settings: for IC50: 30 min incubation, EtOH, absorbance at 734 nm; for ABTS-TEAC100: Trolox Equivalent Antioxidant Capacity vs 100 µM solution of the substance, from ABTS assay
Experimental: ABTS^+ radical was produced by reacting 2,2′-azino-bis-3-ethylbenzthiazoline-6-sulphonic acid (ABTS) 7 mM with K2S2O8 2.45 mM, both reactants dissolved in water, and at the volume ratio of 1:1. The mixture was stored in the dark at room temperature for 16 h. The ABTS^+ solution was diluted to give an absorbance of 0.750 ± 0.025 at 734 nm in EtOH. All the compounds tested were dissolved in EtOH. 150 µL of each compound solution was added to the wells of the 96-well plate, followed by the addition of 50 µL of the ABTS^+ radical solution. Final compound concentrations tested were 0, 5, 10, 20, 50, 100, 150, 200 µM. The absorbance change at 734 nm was recorded after 30 min incubation in the dark, and the percentage of radical scavenging was calculated for each concentration relative to a blank containing no scavenger. The degree of decolorization was calculated as the percentage reduction of absorbance. The ABTS^+ radical scavenging activity was calculated as follows: Percentage ABTS^+ radical scavenging activity = {1 − [As/Ac]} × 100(1) where As is the absorbance of the ABTS^+ radical solution containing samples and Ac the absorbance of the control solution without antioxidant. The percentages of ABTS^+ radical reduced were plotted against compound concentration. Trolox was used as a reference antioxidant. All the assays were carried out three times by quadruplicate for each compound.

[2] = FRAP (Ferric Reducing Antioxidant Power) assay; type: biochemical; settings: for FRAP-TEAC100: Trolox Equivalent Antioxidant Capacity vs 100 µM solution of the substance, from FRAP assay; for FRAP Assay (%) at 100 µM / FRAP Assay (%) at 200 µM: 30 min, 593 nm
Experimental: The assay was carried out according to the method of Benzie et al. with slight modifications, in a 96-well microplate. FRAP reagent was prepared by mixing 10 mL of 300 mM acetate buffer with 1 mL of 10 mM 2,4,6-tripyridyl-S-triazine (TPTZ) in HCl 40 mM and 1mL of FeCl3·6H2O 20 mM. Firstly, 190 µL of the FRAP reagent were added to all wells of the 96-well plate, followed by the addition to the well of 10 µL of the test compounds dissolved in Ethanol to reach the final concentrations assayed (0, 5, 10, 20, 50, 100, 150, 200 µM). After 30 min incubation in the dark, the absorbance was read at 593 nm. Trolox was used as assay control. Three different assays were carried out by quadruplicate for each compound.

[3] = Cytotoxicity in SH-SY5Y cells (MTT); type: cell-based; settings: human, SH-SY5Y neuronal cells, concentration reducing cell viability to 50% of control
Experimental: So, to study the neuroprotectant potential of β-diketones in the SH-SY5Y cell line, we firstly need to determine their cytotoxicity in the same cellular model. […] In addition to that, within each series, the introduction of a second fluorine atom in the left-hand side phenyl ring decreases also the cytotoxicity.
SH-SY5Y cells were seeded into 96-well plates at a density of 5 × 10^3 cells/well and grown in the incubator for 24 h. All compounds tested were dissolved and eventually further diluted in dimethylsulfoxide (DMSO). After overnight incubation, the cells were treated with different test concentrations (5, 10, 20, 50, 100, 150, 200 µM) in a final volume of 200 µL with four replicates each. […] Cell proliferation or viability was measured using the 3-(4,5-dimethylthiazol-2-yl)-2,5-diphenyl tetrazolium bromide (MTT) assay. After 24 h, 20 µL of MTT (5 mg/mL) was added to each well and the plate was incubated at 37 °C in the dark for 2 h. Supernatants were removed and the formazan crystals were solubilized in DMSO (200 µL/well), under 10 min shaking at room temperature. The reduction of MTT was quantified by absorbance at 570 nm Varioskan microplate reader (Thermo Fisher Scientific, Vantaa, Finland). Effects of the test compounds on cell viability were calculated using cells treated with vehicle as control. The data were subjected to linear regression analysis and the regression lines were plotted for the best fit. The IC50 (inhibition of cell viability) concentrations were calculated using the respective dose-response curves.

[4] = Iron chelation capacity (Fe^+2-ferrozine complex); type: biochemical; settings: all experiments, both 50 and 200 µM
Experimental: To decrease the level of free Fe^2+ that can reduce H2O2 to the ^•OH radical and produce other ROS, it is worth to evaluate the iron chelation capacity of new potential AOX compounds as potential new therapeutic agents against neurodegenerative diseases. […] In this assay ferrozine form complexes with Fe^+2 in a quantitative manner, and in the presence of chelating compounds this complex is disrupted.
The iron chelation capacity was determined according to the method of Dinis et al., using ferrous chloride instead of ferrous sulfate. In this method, ferrozine can form complexes with a ferrous ion in a quantitative way yielding a red color with maximum absorbance at 562 nm. In the presence of other iron chelators, a decoloration is observed due to the competition with ferrozine for the metal. The assay was carried out in a 96 well plate. Serial dilutions of test compound (0, 5, 10, 25, 50, 100, 150, 200 µM) were dispensed (180 µL) into each well and then 10 µL of FeCl2 1 mM were added (final FeCl2 concentration, […]). After shaking the plate for 1 min, 10 µL of Ferrozine 2 mM were added. The mixture was shaken thoroughly and left to stand for 20 min at room temperature. The absorbance was measured at 562 nm with a Varioskan microplate reader. […] The compound iron chelation activity was calculated as the percentage of inhibition of the Fe^+2-Ferrozine complex by the formula in Equation (3):%Inhibition = {(Ao − As)/Ao} × 100(3) where Ao is the absorbance of the control, and As is the absorbance in the presence of the test compound. EDTA was used as a positive control. All the experiments were performed three times by quadruplicate for each compound concentration.

[5] = DPPH radical scavenging assay; type: biochemical; settings: antioxidant concentration that decreases initial DPPH^• concentration by 50%; 30 min, 517 nm
Experimental: The assay was performed in a 96-well microplate. A 0.2 mM solution of 2,2-diphenyl-1-picryl-hydrazyl-hydrate (DPPH) in ethanol was prepared. All the compounds tested were dissolved in EtOH. Firstly, 150 µL of each compound solution was added to the wells of the 96-well plate, followed by the addition of 50 µL of the DPPH solution. Final compound concentrations tested were 0, 5, 10, 20, 50, 100, 150, 200 µM. The change in absorbance at 517 nm was measured after 30 min incubation in the dark. The free radical scavenging activity was calculated as inhibition using the following Equation (2): Percentage DPPH radical scavenging activity = {1 − [As/Ac]} × 100(2) where As is the absorbance of the DPPH solution containing samples and Ac the absorbance of the control solution without antioxidant but with DPPH. The percentages of DPPH reduced were plotted against compound concentration. The experiment was also conducted using Trolox as reference antioxidant. Assays were performed three times by quadruplicate for each compound.

Row | SMILES | IC50 [1] [µM] | ABTS-TEAC100 [1] | FRAP-TEAC100 [2] | FRAP Assay (%) at 100 µM [2] [%] | FRAP Assay (%) at 200 µM [2] [%] | IC50 at 24 h [3] [µM] | Inhibition of the Fe^+2-Ferrozine complex [4] | IC50 [5] [µM]
1 | COc1cc(/C=C/C(O)=C/C(=O)C(F)(F)F)ccc1F [Compound 2b, (3Z,5E)-1,1,1-trifluoro-6-(4-fluoro-3-methoxyphenyl)-4-hydroxyhexa-3,5-dien-2-one] | > 600 | 0.23 | 0.03 | 1.9 | 3.1 | 88 ± 4.5 |  | 
2 | O=C(O)CN(CCN(CC(=O)O)CC(=O)O)CC(=O)O [EDTA, reference compound] |  |  |  |  |  |  | completely inhibits | 
3 | COc1cc(/C=C/C(O)=C/C(=O)c2ccccc2)ccc1F [Compound 2a, (2Z,4E)-5-(4-fluoro-3-methoxyphenyl)-3-hydroxy-1-phenylpenta-2,4-dien-1-one] | > 600 | 0.21 | 0.00 | 0.1 | 0.7 | 75.7 ± 5.4 |  | 
4 | Cc1c(C)c2c(c(C)c1O)CCC(C)(C(=O)O)O2 (centres unmarked) [Trolox, reference compound] | 34 ± 2.3 | 1 | 1 | 53.0 | 100.0 |  |  | 19 ± 1.8
5 | O=C(/C=C(O)/C=C/c1ccc(O)cc1F)c1ccccc1 [Compound 4a, (2Z,4E)-5-(2-fluoro-4-hydroxyphenyl)-3-hydroxy-1-phenylpenta-2,4-dien-1-one] | 108 ± 7.6 | 0.40 | 0.15 | 9.8 | 14.3 | 104 ± 7.1 |  | 
6 | O=C(/C=C(O)/C=C/c1cc(F)c(O)cc1F)c1ccccc1 [Compound 6a, (2Z,4E)-5-(2,5-difluoro-4-hydroxyphenyl)-3-hydroxy-1-phenylpenta-2,4-dien-1-one] | 67.2 ± 2.7 | 0.51 | 0.25 | 15.5 | 25.2 | 134 ± 6.6 |  | 
7 | O=C(/C=C(O)/C=C/c1ccc(O)c(F)c1)C(F)(F)F [Compound 3b, (3Z,5E)-1,1,1-trifluoro-6-(3-fluoro-4-hydroxyphenyl)-4-hydroxyhexa-3,5-dien-2-one] | 113 ± 12.4 | 0.67 | 0.34 | 19.7 | 32.6 | 109 ± 7.6 |  | 
8 | O=C(/C=C(O)/C=C/c1ccc(O)cc1F)C(F)(F)F [Compound 4b, (3Z,5E)-1,1,1-trifluoro-6-(2-fluoro-4-hydroxyphenyl)-4-hydroxy-hexa-3,5-dien-2-one] | 216 ± 39.5 | 0.52 | 0.09 | 4.8 | 8.5 | 138 ± 6.5 |  | 
9 | COc1cc(/C=C/C(O)=C/C(=O)C(F)(F)F)ccc1O [Compound 1b, (3Z,5E)-1,1,1-trifluoro-4-hydroxy-6-(4-hydroxy-3-methoxyphenyl)hexa-3,5-dien-2-one] | 34.6 ± 2.7 | 0.73 | 0.64 | 36.6 | 61.4 | 102 ± 5.6 |  | 53.8 ± 2.6
10 | O=C(/C=C(O)/C=C/c1ccc(F)c(O)c1F)C(F)(F)F [Compound 5b, (3Z,5E)-6-(2,4-difluoro-3-hydroxyphenyl)-1,1,1-trifluoro-4-hydroxyhexa-3,5-dien-2-one] | 518 ± 94.6 | 0.32 | 0.05 | 3.0 | 4.7 | 153 ± 21 |  | 
11 | O=C(/C=C(O)/C=C/c1ccc(O)c(F)c1)c1ccccc1 [Compound 3a, (2Z,4E)-5-(3-fluoro-4-hydroxyphenyl)-3-hydroxy-1-phenylpenta-2,4-dien-1-one] | 60.2 ± 2.2 | 0.51 | 0.33 | 20.5 | 31.0 | 98.1 ± 8.3 |  | 
12 | O=C(/C=C(O)/C=C/c1ccc(F)c(O)c1F)c1ccccc1 [Compound 5a, (2Z,4E)-5-(2,4-difluoro-3-hydroxyphenyl)-3-hydroxy-1-phenylpenta-2,4-dien-1-one] | 275 ± 35.3 | 0.23 | 0.05 | 3.4 | 5.3 | 119 ± 8.5 |  | 
